# Test results from US7459451B2, “Pyrazolopyridine derivatives” (Astellas Pharma Inc., priority 2004, dated 2008).
row,Structure (SMILES),melting point [°C]
1,"CCOC(=O)c1c(C)nc2c(cnn2CC)c1-c1ccnc(Cl)c1 [Example 3, Ethyl 4-(2-chloro-4-pyridyl)-1-ethyl-6-methyl-1H-pyrazolo[3,4-b]pyridine-5-carboxylate]",109 to 110
2,"CCn1ncc2c(-c3cncc(C)c3)c(C(=O)NCc3ccc(OC)cc3)c(-c3ccccc3)nc21 [Example 65, 1-ethyl-N-(4-methoxybenzyl)-4-(5-methyl-3-pyridyl)-6-phenyl-1H-pyrazolo[3,4-b]pyridine-5-carboxamide]",203 to 204
3,"CCn1ncc2c(-c3cncc(C)c3)c(C(=O)NC3Cc4ccccc4C3)c(-c3ccccc3)nc21 [Example 66, N-(2,3-Dihydro-1H-inden-2-yl)-1-ethyl-4-(5-methyl-3-pyridyl)-6-phenyl-1H-pyrazolo[3,4-b]pyridine-5-carboxamide]",269 to 270
4,"CCn1ncc2c(-c3cncc(C)c3)c(C#N)c(C)nc21 [Example 74, 1-Ethyl-6-methyl-4-(5-methyl-3-pyridyl)-1H-pyrazolo[3,4-b]pyridine-5-carbonitrile]",160 to 161
5,"CCn1ncc2c(-c3cncc(C)c3)c(CCC(=O)O)c(-c3ocnc3C)nc21 [Example 79, 3-[1-ethyl-6-(4-methyl-1,3-oxazol-5-yl)-4-(5-methyl-3-pyridyl)-1H-pyrazolo[3,4-b]pyridin-5-yl]propanoic acid]",184 to 185.5
6,"CCn1ncc2c(-c3cncc(C)c3)c(/C=C/C(=O)O)c(COC)nc21 [Example 82, (2E)-3-[1-ethyl-6-(methoxymethyl)-4-(5-methyl-3-pyridyl)-1H-pyrazolo[3,4-b]pyridin-5-yl]acrylic acid]",195 to 196
7,"CCn1ncc2c(-c3cncc(C)c3)c(/C=C/C(=O)O)c(C)nc21 [Example 85, (2E)-3-[1-Ethyl-6-methyl-4-(5-methyl-3-pyridyl)-1H-pyrazolo[3,4-b]pyridin-5-yl]acrylic acid]",239 to 241
8,"CCn1ncc2c(-c3cncc(Br)c3)c(C(=O)O)c(COC)nc21 [Example 86, 4-(5-Bromo-3-pyridyl)-1-ethyl-6-(methoxymethyl)-1H-pyrazolo[3,4-b]pyridine-5-carboxylic acid]",162 to 163
9,"CCn1ncc2c(-c3cncc(C)c3)c(/C=C/C(=O)O)c(COCC3CC3)nc21 [Example 87, (2E)-3-[6-[(Cyclopropylmethoxy)methyl]-1-ethyl-4-(5-methyl-3-pyridyl)-1H-pyrazolo[3,4-b]pyridin-5-yl]acrylic acid]",187 to 189
10,"CCn1ncc2c(-c3cncc(Br)c3)c(/C=C/C(=O)O)c(COCC3CC3)nc21 [Example 88, (2E)-3-{4-(5-Bromo-3-pyridyl)-6-[(cyclopropylmethoxy)methyl]-1-ethyl-1H-pyrazolo[3,4-b]pyridin-5-yl}acrylic acid]",183 to 184
11,"Cc1cncc(-c2c(/C=C/C(=O)O)c(C)nc3c2cnn3C)c1 [Example 90, (2E)-3-[1,6-Dimethyl-4-(5-methyl-3-pyridyl)-1H-pyrazolo[3,4-b]pyridin-5-yl]acrylic acid]",269 to 272
12,"CCn1ncc2c(-c3cncc(C)c3)c(CCC(=O)O)c(COC)nc21 [Example 92, 3-[1-Ethyl-6-(methoxymethyl)-4-(5-methyl-3-pyridyl)-1H-pyrazolo[3,4-b]pyridin-5-yl]propanoic acid]",154 to 155
13,"CCn1ncc2c(-c3cncc(Br)c3)c(CCC(=O)O)c(C)nc21 [Example 93, 3-[4-(5-Bromo-3-pyridyl)-1-ethyl-6-methyl-1H-pyrazolo[3,4-b]pyridin-5-yl]propanoic acid]",178 to 179.5
14,"CCn1ncc2c(-c3cncc(C)c3)c(CCC(=O)O)c(C)nc21 [Example 94, 3-[1-Ethyl-6-methyl-4-(5-methyl-3-pyridyl)-1H-pyrazolo[3,4-b]pyridin-5-yl]propanoic acid]",179 to 181
